Source: PubChem BioAssay AID651973 (The Scripps Research Institute Molecular Screening Center, 2013)
Calls of active or inactive are those of the source. The rule behind the calls is not given here.

Tested on: Cell-based VP16 transactivation luciferase reporter, luminescence
Experiment: VP16 transactivation reporter inhibitors, dose response, counter-screen for LRH-1 inverse agonist project, cell-based, luminescence (AID 651973)

**Q.** For `COc1ccc(OCCNC(=O)C2(C)CCN2Cc2ccc(SC)cc2)cc1` (stereo unspecified), which IC50 is on record?
**A.** 28.5 µM (inactive)

**Q.** Which IC50 does the source give for `O=C(Nc1ccccc1)c1oc2ccccc2c1NC(=O)C1CC1` here?
**A.** > 35.9 µM (inactive)

**Q.** `Cc1cc(OCC(=O)N2CCC(O)CC2)c2c(C)cc(=O)oc2c1` was tested. Which IC50 did it give?
**A.** > 35.9 µM (inactive)

**Q.** For `CCCc1nnc(SCC(=O)Nc2ccc(C(=O)OCC)cc2)o1`, which IC50 is on record?
**A.** > 35.9 µM (inactive)

**Q.** For `Cn1cc(Cl)c(C(=O)OCC(=O)Nc2ccc(S(N)(=O)=O)cc2)n1`, which IC50 is on record?
**A.** > 35.9 µM (inactive)

**Q.** For `Cc1ccc(NC(=O)CSc2nnc([C@@H]3CCCN3C(=O)OC(C)(C)C)o2)c(C)c1`, which IC50 is on record?
**A.** > 35.9 µM (inactive)

**Q.** How did the IC50 turn out when `O=C(NC1CCCC(C(F)(F)F)C1)c1ccc([N+](=O)[O-])o1` (stereo unspecified) was run?
**A.** > 35.9 µM (inactive)

**Q.** `O=C(NCC1CCCO1)c1ccc(NC(=O)c2cccc([N+](=O)[O-])c2)cc1` (stereo unspecified) was tested. Which IC50 did it give?
**A.** > 35.9 µM (inactive)

**Q.** `COc1cc2c(cc1OC)CN(C(=O)CN1C(=O)NC3(CCC(C)CC3)C1=O)CC2` (stereo unspecified) was tested. Which IC50 did it give?
**A.** > 35.9 µM (inactive)

**Q.** How did the IC50 turn out when `CC(=O)Nc1cc(-c2cccnc2)cn2c(-c3ccc(F)cc3)cnc12` was run?
**A.** > 35.9 µM (inactive)

**Q.** `O=C(Nc1ccc(Br)cn1)c1ccc([N+](=O)[O-])o1` was tested. Which IC50 did it give?
**A.** > 35.9 µM (inactive)

**Q.** For `COc1ccc(CCn2c(C)cc(C(=O)COC(=O)c3ccc(O)cc3O)c2C)cc1`, which IC50 is on record?
**A.** > 35.9 µM (inactive)

**Q.** Which IC50 does the source give for `COc1cc(C(=O)Nc2ccccc2N2CCN(S(C)(=O)=O)CC2)cc(OC)c1OC` here?
**A.** > 35.9 µM (inactive)

**Q.** For `CCCc1cc(=O)oc2cc(OCC(=O)NCCc3ccc(S(N)(=O)=O)cc3)ccc12`, which IC50 is on record?
**A.** > 35.9 µM (inactive)

**Q.** How did the IC50 turn out when `CC(=O)Nc1ccc(NC(=O)CSc2ccc(-c3ccco3)nn2)cc1` was run?
**A.** > 35.9 µM (inactive)

**Q.** With `CN1CCN(c2ccc(S(=O)(=O)N3CCCCC3)cc2NC(=O)COc2ccc([N+](=O)[O-])cc2)CC1` as the compound, how does the IC50 read?
**A.** > 35.9 µM (inactive)

**Q.** How did the IC50 turn out when `Cc1cc(C)c2c(=O)[nH]c(SCC(=O)Nc3ccc(Br)cc3)nc2n1` was run?
**A.** > 35.9 µM (inactive)

**Q.** For `COc1ccc(NC(=O)CSc2nc(N)c(-c3ccccc3)c(=O)[nH]2)cc1`, which IC50 is on record?
**A.** > 35.9 µM (inactive)

**Q.** Which IC50 does the source give for `COc1ccc(S(=O)(=O)N2CCN(CC(=O)Nc3ccc(C)c(F)c3)CC2)cc1` here?
**A.** > 35.9 µM (inactive)

**Q.** `CCOc1ccc(NC(=O)COC(=O)C2CCC(=O)N2)c([N+](=O)[O-])c1` (stereo unspecified) was tested. Which IC50 did it give?
**A.** > 35.8 µM (inactive)

**Q.** For `O=C(CSc1n[nH]c(-c2ccccc2)n1)Nc1ccc(F)cc1F`, which IC50 is on record?
**A.** > 35.9 µM (inactive)

**Q.** With `Cc1ccc2cccc(OCC(=O)NCCC3=CCCCC3)c2n1` as the compound, how does the IC50 read?
**A.** > 35.8 µM (inactive)

**Q.** `Cc1c(Cl)cccc1NC(=O)CS(=O)(=O)c1ccccc1` was tested. Which IC50 did it give?
**A.** > 35.8 µM (inactive)

**Q.** How did the IC50 turn out when `CC1(C(=O)NCc2ccc3c(c2)OCO3)CCN1C(=O)Cc1ccc(Cl)cc1Cl` (stereo unspecified) was run?
**A.** > 35.9 µM (inactive)

**Q.** With `O=[N+]([O-])c1ccc(N2CCN(S(=O)(=O)c3ccccc3)CC2)cc1NCc1cccnc1` as the compound, how does the IC50 read?
**A.** > 35.9 µM (inactive)

**Q.** For `CC(C)Oc1cccc(-c2cc(C(=O)NN3CCOCC3)c3ccccc3n2)c1`, which IC50 is on record?
**A.** > 35.9 µM (inactive)

**Q.** With `Cc1cccc(NC(=O)COC(=O)Cc2cccs2)c1C` as the compound, how does the IC50 read?
**A.** > 35.9 µM (inactive)

**Q.** How did the IC50 turn out when `CCn1cc(Br)c(C(=O)Nc2ccccc2C(=O)OC)n1` was run?
**A.** > 35.9 µM (inactive)

**Q.** For `CCOc1ccc(OCCC(=O)OCC(=O)Nc2ccc3c(c2)OCCO3)cc1`, which IC50 is on record?
**A.** > 35.9 µM (inactive)

**Q.** How did the IC50 turn out when `O=C(Nc1ccccc1C(=O)Nc1nccs1)c1ccccc1` was run?
**A.** 14.7 µM (inactive)

**Q.** Which IC50 does the source give for `CCCc1cc(=O)oc2c(C)c(OCC(=O)NC3CC(C)(C)NC(C)(C)C3)ccc12` here?
**A.** > 35.9 µM (inactive)

**Q.** How did the IC50 turn out when `COc1ccc(NC(=O)CSc2nc3nc(C)cc(C)c3c(=O)[nH]2)cc1` was run?
**A.** > 35.9 µM (inactive)

**Q.** `CCC(=O)Nc1nnc(SCC(=O)NCCc2ccc(OC)c(OC)c2)s1` was tested. Which IC50 did it give?
**A.** > 35.9 µM (inactive)

**Q.** `Cc1cccc(NC(=O)COC(=O)CN2C(=O)c3ccccc3C2=O)c1C` was tested. Which IC50 did it give?
**A.** > 35.9 µM (inactive)

**Q.** How did the IC50 turn out when `CCCN(CC(=O)Nc1ccc(C(C)=O)cc1)CC(=O)Nc1ccccc1C` was run?
**A.** > 35.9 µM (inactive)

**Q.** `COc1ccc(CCNC(=O)COC(=O)C23CC4CC(CC(Br)(C4)C2)C3)cc1` was tested. Which IC50 did it give?
**A.** > 35.9 µM (inactive)

**Q.** With `COc1ccc(CCNC(=O)CSc2ccc(NC(C)=O)cc2)cc1OC` as the compound, how does the IC50 read?
**A.** > 35.9 µM (inactive)

**Q.** `COc1ccc(-n2c(N)c(C(=O)NCc3cccnc3)sc2=S)cc1` was tested. Which IC50 did it give?
**A.** > 35.9 µM (inactive)

**Q.** How did the IC50 turn out when `CC(C)CC1(C)NC(=O)N(CC(=O)Nc2ccc3c(c2)OCCO3)C1=O` (stereo unspecified) was run?
**A.** > 35.9 µM (inactive)

**Q.** Which IC50 does the source give for `CCc1cc(=O)oc2c(C)c(OCC(=O)NCCCN3CCOCC3)ccc12` here?
**A.** > 35.9 µM (inactive)

**Q.** Which IC50 does the source give for `CCOc1ccc(Cc2nnc(SCC(=O)Nc3ccc(C(C)=O)cc3)[nH]c2=O)cc1` here?
**A.** > 35.9 µM (inactive)

**Q.** Which IC50 does the source give for `CC(O)(c1cccnc1)c1nc(-c2cccc(C#N)c2)cs1` (stereo unspecified) here?
**A.** > 35.9 µM (inactive)

**Q.** For `Cc1nnc(SCC(=O)Nc2ccc(Br)cc2)n(N)c1=O`, which IC50 is on record?
**A.** > 35.9 µM (inactive)

**Q.** With `COc1ccc(NC(=O)CSc2sc3c(O)cc(=O)[nH]c3c2C#N)c(OC)c1` as the compound, how does the IC50 read?
**A.** > 35.9 µM (inactive)

**Q.** For `Cc1cc(Br)ccc1NC(=O)CN1C(=O)CCC1=O`, which IC50 is on record?
**A.** > 35.9 µM (inactive)

**Q.** `Cc1onc(-c2cccc(Cl)c2Cl)c1C(=O)O/N=C(\N)c1ccc([N+](=O)[O-])o1` was tested. Which IC50 did it give?
**A.** > 35.9 µM (inactive)
